One data set deals with T1, Recombinant human BACE1 (Homo sapiens, UniProt P56817).
T1 construct: purchased R&D Systems
Put plainly: Assay of BACE1 inhibiting activity. The data set is classed as biochemical. To be noted: 50% inhibitory concentration against enzymatic activity, pH 5.0, 30° C., 3 hours. The procedure:
48.5 μL of substrate peptide solution (Biotin-XSEVNLDAEFRHDSGC-Eu: Xεε-amino-n-capronic acid, Eu=Europium cryptate) was added to each well of 96-hole half-area plate (a black plate: Costar Corporation), and after addition of 0.5 μl of the test compound (dissolved in […]) and 1 μl of Recombinant human BACE1 (R&D Systems), the reaction mixture was incubated at 30° C. for 3 hours. The substrate peptide was synthesized by reacting Cryptate TBPCOOH mono SMP (CIS bio international) with Biotin-XSEVNLDAEFRHDSGC (Peptide Institute, Inc.). The final concentrations of the substrate peptide and Recombinant human BACE1 were adjusted to 18 nM and 7.4 nM respectively, and the reaction was performed in sodium acetate buffer (50 mM sodium acetate, pH 5.0, 0.008% Triton X-100). After the completion of reaction, 50 μl of 8.0 μg/ml Streptavidin-XL665 (CIS bio international) dissolved in phosphate buffer (150 mM K2HPO4—KH2PO4, pH 7.0, 0.008% Triton X-100, 0.8 M KF) was added to each well and left stand at 30° C. for an hour. Then, fluorescence intensity was measured (excitation wavelength: 320 nm, measuring wavelength: 620 nm and 665 nm) using Wallac 1420 multilabel counter (Perkin Elmer life sciences). Enzymatic activity was determined from counting ratio of each wavelength (10,000×Count 665/Count 620) and 50% inhibitory concentration against the enzymatic activity was calculated.

Data set [1] has as its system Neuroblastoma SH-SY5Y cells (SH/APPwt) with human wild-type β-APP excessively expressed. The data set can be described thus: Measurement of β-amyloid (Aβ) production inhibitory effect in cell. The data set is classed as cell-based. To be noted: Homo sapiens, SH-SY5Y, 24 h, amount needed to inhibit Aβ production by 50%, 24 hours incubation, Amyloid β1-40 HTRF. As for the experimental part: Neuroblastoma SH-SY5Y cells (SH/APPwt) with human wild-type β-APP excessively expressed therein were prepared at 8×10^5 cells/mL, and 150 μl portions thereof were inoculated into each well of a 96-well culture plate (Falcon). The cells were cultured for 2 hours at 37° C. in a 5% gaseous carbon dioxide incubator. Then, a solution which had been preliminarily prepared by adding and suspending the test compound (DMSO (dimethyl sulfoxide) solution) so as to be 2 μl/50 μl medium was added to the cell sap. Namely, the final DMSO concentration was 1%, and the amount of the cell culture was 200 μl. After the incubation was performed for 24 hours from the addition of the test compound, 100 μl of the culture supernatant was collected from each fraction. The amount of the Aβ in each fraction was measured.
The […] was measured as follows. 10 μl of a homogeneous time resolved fluorescence (HTRF) measurement reagent (Amyloid β1-40 peptide; IBA Molecular Holding, S.A.) and 10 μl of the culture supernatant were put into a 384-well half area microplate (black microplate, Costar) and mixed with each other, and then left standing overnight at 4° C. while the light was shielded. Then, the fluorescence intensity (excitation wavelength: 337 nm, measurement wavelength: 620 nm and 665 nm) was measured with a Wallac 1420 multilabel counter (Perkin Elmer life sciences). The Aβ amount was determined from the count rate at each measurement wavelength (10000×Count 665/Count 620), and the amount needed to inhibit Aβ production by 50% (IC50) was calculated from at least six different dosages.

The target of the next data set is T2, hERG channel (Homo sapiens, UniProt Q12809).
T2 construct: expressed in transfected cells; host or cells: HEK293
T2 sequence (Q12809 whole entry): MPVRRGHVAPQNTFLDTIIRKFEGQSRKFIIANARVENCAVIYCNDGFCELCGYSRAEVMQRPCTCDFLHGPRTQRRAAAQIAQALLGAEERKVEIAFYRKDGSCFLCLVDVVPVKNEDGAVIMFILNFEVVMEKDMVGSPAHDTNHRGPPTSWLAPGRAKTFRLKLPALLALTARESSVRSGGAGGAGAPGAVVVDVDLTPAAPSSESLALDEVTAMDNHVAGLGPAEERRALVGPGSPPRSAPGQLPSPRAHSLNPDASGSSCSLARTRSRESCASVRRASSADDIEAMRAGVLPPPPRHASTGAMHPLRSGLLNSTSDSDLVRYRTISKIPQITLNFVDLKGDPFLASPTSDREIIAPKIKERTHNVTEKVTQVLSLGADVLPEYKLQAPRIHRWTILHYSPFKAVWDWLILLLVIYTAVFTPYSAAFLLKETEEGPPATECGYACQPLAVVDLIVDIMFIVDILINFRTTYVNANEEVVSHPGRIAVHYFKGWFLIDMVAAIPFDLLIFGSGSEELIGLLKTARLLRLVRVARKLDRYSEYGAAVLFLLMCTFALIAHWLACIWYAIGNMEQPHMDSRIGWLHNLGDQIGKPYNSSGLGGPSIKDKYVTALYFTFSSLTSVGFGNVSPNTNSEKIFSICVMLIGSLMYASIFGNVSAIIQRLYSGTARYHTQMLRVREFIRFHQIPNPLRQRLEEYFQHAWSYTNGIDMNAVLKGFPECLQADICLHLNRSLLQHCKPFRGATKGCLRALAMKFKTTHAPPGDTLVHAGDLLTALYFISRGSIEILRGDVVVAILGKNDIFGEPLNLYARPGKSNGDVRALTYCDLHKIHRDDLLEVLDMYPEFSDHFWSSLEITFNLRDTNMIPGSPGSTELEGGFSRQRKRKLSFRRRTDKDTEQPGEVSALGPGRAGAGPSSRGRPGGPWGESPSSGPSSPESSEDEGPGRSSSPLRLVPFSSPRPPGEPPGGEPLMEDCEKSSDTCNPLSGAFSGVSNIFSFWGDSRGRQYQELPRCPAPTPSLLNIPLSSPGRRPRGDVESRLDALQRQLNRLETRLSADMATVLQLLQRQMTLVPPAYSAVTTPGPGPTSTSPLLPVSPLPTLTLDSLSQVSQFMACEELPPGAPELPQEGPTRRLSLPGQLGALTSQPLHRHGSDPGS
The data set can be described thus: hERG test (whole-cell patch clamp). Particulars: HEK293 cells that express hERG, 5 μM test compound for 7 minutes, peak tail current, read-out: Inhibition Rate (%). The data set is classed as cell-based. The procedure:
As risk assessment for QT prolongation in vitro, the action on delayed rectifier potassium current was studied using a HEK293 cell with a human delayed potassium ether-a-go-go related gene (hERG) channel expressed therein.
A cell was maintained at a membrane potential of −80 mV, then +50 mV of a depolarizing stimulus (2 seconds) was applied to the cell, further −50 mV of a repolarizing stimulus (2 seconds) was applied thereto and the induced peak tail current was measured by a whole-cell patch clamp technique. 5 μM of the test compounds was applied to the cells for 7 minutes, the inhibition rate before application of the test compound was calculated, and it was compared to the rate of vehicle group (0.5% dimethylsulfoxide solution).

The target of a further data set is CYP3A4 (Homo sapiens, UniProt P08684). Put plainly: CYP3A4 fluorescent MBI test. The data set is classed as in vitro ADME. Particulars: (IC50 without pre reaction) − (IC50 with pre reaction), pre-reaction 0 or 30 minutes. Set-up: host or cells: E. coli. As for the experimental part:
The CYP3A4 fluorescent MBI test is a test to examine enhancement of CYP3A4 inhibition by metabolic reaction of the compound. Here, E. coli-expressing CYP3A4 was used as an enzyme, and a reaction wherein 7-benzyloxy trifluoromethylcumarin (BFC) was debenzylated by the CYP3A4 enzyme into a fluorescent metabolite 7-hydroxytrifluoromethylcumarin (HFC) was employed as an indicator reaction. The reaction conditions were as follows.
Substrate: 5.6 μM/L 7-BFC
Pre-reaction time: 0 or 30 minutes
Reaction time: 15 minutes
Reaction temperature: 25° C. (room temperature)
CYP3A4 content (E. coli-expressing enzyme): 62.5 pmol/mL at pre-reaction, 6.25 pmol/mL at reaction (10-fold diluted)
Test compound concentration: 0.625, 1.25, 2.5, 5, 10, and 20 μM (six different concentrations).
The enzyme and a test compound solution were added to a K-Pi buffer (pH 7.4) in the aforementioned amounts for the pre-reaction so that a pre-reaction solution was prepared, and this solution was put into a 96-well microplate. Part of this solution was transferred to another 96-well microplate such that it was diluted with the substrate and the K-Pi buffer to get a 10-fold diluted solution. NADPH, which is a coenzyme, was added so as to trigger the indicator reaction (without pre-reaction). As the reaction proceeded for a predetermined time period, acetonitrile/0.5 M Tris (tris hydroxyaminomethane)=4/1 was added to terminate the reaction. NADPH was also added to the residual pre-reaction solution so as to trigger the pre-reaction (with pre-reaction). As the pre-reaction proceeded for a predetermined time period, part of the solution was transferred to another microplate so that the solution was diluted with the substrate and the K-Pi buffer to get a 10-fold diluted solution, and then the indicator reaction was triggered. As the reaction proceeded for a predetermined time period, acetonitrile/0.5 M Tris (tris hydroxyaminomethane)=4/1 was added so as to terminate the reaction. With respect to each of the microplates on which the indicator reaction was performed, the fluorescence value of the metabolite 7-HFC was measured with a fluorescence plate reader (Ex=420 nm, Em=535 nm).
Control (100%) was prepared by adding only DMSO, which was used as a solvent to dissolve the drug, to the reaction system. The remaining activity (%) at each concentration after adding the test compound solution was calculated, and the IC50 values of without pre reaction and with pre reaction were calculated by the formula: y=A+((B−A)/(1+((C/x)^D))) using XLfit. The IC50 shift value was calculated by the formula: (the IC50 value of without pre reaction)−(the IC50 value of with pre reaction).

The nature of the next data set: Solubility test. To be noted: JP-I medium with 2% DMSO, pH 1.2, simulated gastric fluid, kinetic from dmso stock, turbidity after 4 hours. The data set is classed as physicochemical. As for the experimental part:
A 2-fold dilution series (12 points) of a 10 mM solution of a test compound in DMSO was added to a medium (JP-I, JP-II) (2%), and solubility was assessed by 3 stages (High; >40 μM, Medium; 3-40 μM, Low; <3 μM) from a turbidity after 4 hours (crystallization information).

T1 sequence (P56817 46-501): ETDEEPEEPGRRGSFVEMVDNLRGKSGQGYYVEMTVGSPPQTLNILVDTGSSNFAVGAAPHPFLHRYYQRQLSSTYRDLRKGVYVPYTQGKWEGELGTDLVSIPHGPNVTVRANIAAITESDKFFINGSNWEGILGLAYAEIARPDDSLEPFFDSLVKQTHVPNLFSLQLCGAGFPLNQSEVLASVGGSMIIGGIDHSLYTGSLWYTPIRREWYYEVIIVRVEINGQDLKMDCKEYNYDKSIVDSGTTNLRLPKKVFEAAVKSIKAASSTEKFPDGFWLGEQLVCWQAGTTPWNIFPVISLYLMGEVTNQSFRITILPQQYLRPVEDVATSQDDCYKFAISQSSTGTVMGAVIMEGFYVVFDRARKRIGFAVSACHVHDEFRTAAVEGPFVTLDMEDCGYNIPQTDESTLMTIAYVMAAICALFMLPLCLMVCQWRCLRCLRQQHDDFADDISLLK
Chain of CYP3A4 (P08684 whole entry): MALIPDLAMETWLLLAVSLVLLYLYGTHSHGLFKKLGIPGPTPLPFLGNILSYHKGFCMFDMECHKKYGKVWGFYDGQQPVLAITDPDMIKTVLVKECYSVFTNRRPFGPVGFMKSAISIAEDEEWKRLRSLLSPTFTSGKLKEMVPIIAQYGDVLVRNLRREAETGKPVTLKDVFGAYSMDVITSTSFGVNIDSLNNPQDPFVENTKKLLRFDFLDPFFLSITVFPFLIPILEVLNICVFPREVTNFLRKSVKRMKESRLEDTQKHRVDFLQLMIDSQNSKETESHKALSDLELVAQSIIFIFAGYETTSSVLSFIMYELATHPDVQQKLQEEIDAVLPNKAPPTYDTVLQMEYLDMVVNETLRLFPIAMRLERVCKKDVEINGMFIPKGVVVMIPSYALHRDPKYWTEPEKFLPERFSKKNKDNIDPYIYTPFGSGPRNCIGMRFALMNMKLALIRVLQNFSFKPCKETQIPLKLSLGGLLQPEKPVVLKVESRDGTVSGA

Turning to `CS/C(N)=N\C1(c2cc(NC(=O)c3ccc(C#N)cn3)ccc2F)CC1` [Compound 1], the IC50 on Recombinant human BACE1 came out at 3670 nM; in data set [1], 55 nM. In addition, at hERG channel, the inhibition at 7 min, 5 µM is 63.8%. Also, the “IC50 shift” value at CYP3A4 is 0 nM.

The molecule `CS/C(N)=N\Cc1cc(NC(=O)c2ccc(C#N)cn2)ccc1F` [Compound 2] displayed an IC50 in data set [1] of 100 nM. Moreover, the “IC50 shift” value on CYP3A4 worked out at 0 nM.

On to `CC#CCOc1cnc(C(=O)Nc2cccc(C/N=C(/N)SC)c2)cn1` [Compound 3], for which the IC50 stood at 130 nM on Recombinant human BACE1 and 5 nM in data set [1]. Also, the inhibition at 7 min, 5 µM at hERG channel stood at 67.6%. Also, the “IC50 shift” value at CYP3A4 worked out at 0 nM.

With `CC#CCOc1cnc(C(=O)Nc2cccc(C/N=C(/N)SCc3ccccc3)c2)cn1` [Compound 4], the figures for the half-inhibitory concentration (IC50) (at Recombinant human BACE1; in data set [1]) were at most 1000 nM and 119 nM, respectively. In addition, on CYP3A4, the “IC50 shift” value was found to be 1000 nM.

Take `C=CCS/C(N)=N\Cc1cccc(NC(=O)c2cnc(OCC#CC)cn2)c1` [Compound 5]: the IC50 is at most 1000 nM on Recombinant human BACE1 and 160 nM in data set [1]. The “IC50 shift” value on CYP3A4 was -2000 nM.

In the case of `CC#CCOc1cnc(C(=O)Nc2cccc(C/N=C(/N)SCCc3ccccc3)c2)cn1` [Compound 6], the figures for the half-inhibitory concentration (IC50) (on Recombinant human BACE1; in data set [1]) were at most 1000 nM and 172 nM, respectively. Moreover, the “IC50 shift” value on CYP3A4 was -2000 nM.

Turning to `CC#CCOc1cnc(C(=O)Nc2cccc(C/N=C(/N)SCC)c2)cn1` [Compound 7], the IC50 at Recombinant human BACE1 came to 1210 nM; in data set [1], 82 nM. Moreover, the “IC50 shift” value on CYP3A4 was under -2000 nM.

Take `CC#CCOc1cnc(C(=O)Nc2cccc(C/N=C(/N)SCCC)c2)cn1` [Compound 8]: the figures for the IC50 (at Recombinant human BACE1; in data set [1]) were at most 1000 nM and 40 nM, respectively. Besides, the “IC50 shift” value at CYP3A4 is -4000 nM.

For `CC#CCOc1cnc(C(=O)Nc2cccc(C/N=C(/N)SCCCC)c2)cn1` [Compound 9], the IC50 is at most 1000 nM on Recombinant human BACE1 and 61 nM in data set [1]. Moreover, the “IC50 shift” value on CYP3A4 is -5000 nM.

In the case of `CC#CCOc1cnc(C(=O)Nc2cccc(C/N=C(/N)SCc3ccccn3)c2)cn1.O=CO` [Compound 11], the IC50 is 290 nM on Recombinant human BACE1 and 524 nM in data set [1]. For the same molecule, the “IC50 shift” value at CYP3A4 was -2000 nM.

Take `CC#CCOc1cnc(C(=O)Nc2cccc(C/N=C(/N)SCc3ccncc3)c2)cn1.O=CO` [Compound 12]: the half-inhibitory concentration (IC50) was determined as 270 nM on Recombinant human BACE1 and 36 nM in data set [1]. Moreover, the “IC50 shift” value on CYP3A4 is under -2000 nM.

With `CC#CCOc1cnc(C(=O)Nc2ccc(F)c(C3(/N=C(/N)SC)CC3)c2)cn1` [Compound 15], the IC50 amounted to 140 nM at Recombinant human BACE1 and 4 nM in data set [1]. Moreover, the inhibition at 7 min, 5 µM on hERG channel came out at 31.5%. Also, the “IC50 shift” value at CYP3A4 was under -3000 nM.

Take `CS/C(N)=N\Cc1cccc(NC(=O)c2cnc(C)cn2)c1` [Compound 18]: on hERG channel, the inhibition at 7 min, 5 µM came to 10.8%. For the same molecule, on CYP3A4, the “IC50 shift” value amounted to 0 nM.

As to `CS/C(N)=N\c1cccc2ccc(NC(=O)c3ccc(C#N)cn3)cc12` [Compound 28], the IC50 on Recombinant human BACE1 turned out to be 790 nM; in data set [1], 193 nM. Moreover, at hERG channel, the inhibition at 7 min, 5 µM was determined as 60.4%. The same molecule returned a solubility at 4 h in “Solubility test” of over 40 µM. In addition, the “IC50 shift” value on CYP3A4 worked out at 1000 nM.

Take `CS/C(N)=N\C1(c2cccc(NC(=O)c3cnc(C)cn3)c2)CCCC1` [Compound 30]: the inhibition at 7 min, 5 µM on hERG channel came to 14.1%. Also, the “IC50 shift” value on CYP3A4 was 0 nM.

In the case of `CS/C(N)=N\C1(c2cccc(NC(=O)c3ccc(C#N)cn3)c2)CCCC1` [Compound 31], the IC50 in data set [1] is at most 1000 nM. Also, the solubility at 4 h in “Solubility test” is over 40 µM.

Molecule `CS/C(N)=N/C1CCc2ccc(NC(=O)c3ccc(C#N)cn3)cc21` (stereo not shown) [Compound 32] registered an IC50 in data set [1] of 260 nM. Further, the “IC50 shift” value on CYP3A4 came to 0 nM.

On to `CN(C)CCCO/C(N)=N/Cc1cccc(NC(=O)c2ccc(C#N)cn2)c1` [Compound 38], for which the IC50 in data set [1] is at most 1000 nM. Further, the inhibition at 7 min, 5 µM at hERG channel came to 8.4%.

In the case of `CO/C(N)=N\Cc1cc(NC(=O)c2cnc(C)cn2)ccc1F` [Compound 40], the IC50 in data set [1] is at most 1000 nM. Further, the solubility at 4 h in “Solubility test” was over 40 µM.

In turn, `CO/C(N)=N\C1(c2cccc(NC(=O)c3cnc(OC)cn3)c2)CC1` [Compound 45] had a 50% inhibitory concentration (IC50) in data set [1] of 28 nM. Also, the inhibition at 7 min, 5 µM on hERG channel came to 2.5%. For the same molecule, the solubility at 4 h in “Solubility test” was over 40 µM.

Values taken from patent US20120015961A1, “ISOTHIOUREA DERIVATIVES OR ISOUREA DERIVATIVES HAVING BACE1 INHIBITORY ACTIVITY” (SHIONOGI & CO., LTD., priority 2009, published 2012).
